Data taken from patent US4368329A, “Process of preparing thiopyrylium sensitizing dyes” (Minnesota Mining and Manufacturing Company, priority 1981, dated 1983).

Assay: Absorption maximum (λmax) and log ε of the dye in solution
Assay type: physicochemical

Row | log ε max. (CHCl3) | λ max. (CHCl3) | SMILES | further results
1 | 4.32 | 612 | COc1cc(-c2cc(-c3ccccc3)cc(-c3ccccc3)[s+]2)ccc1N [Example 21] | 
2 |  |  | COc1cc(N)ccc1-c1cc(-c2ccccc2)cc(-c2ccccc2)[s+]1 [Example 24] | log ε max. (EtOH): 4.16; λ max. (EtOH): 566
3 |  |  | Nc1ccc(-c2cc(-c3ccccc3)cc(-c3ccccc3)[s+]2)c(Cl)c1 [Example 28] | log ε max. (EtOH): 4.06; λ max. (EtOH): 588
4 | 4.32 | 602 | CCc1cc(-c2cc(-c3ccccc3)cc(-c3ccccc3)[s+]2)cc(CC)c1N [Example 18] | 
5 | 5.05 | 620 | CCN(Cc1ccccc1)c1ccc(-c2cc(-c3ccccc3)cc(-c3ccccc3)[s+]2)cc1 [Example 10] | 
6 |  |  | Cc1cc(-c2cc(-c3ccccc3)cc(-c3ccccc3)[s+]2)ccc1N [Example 13] | log ε max. (EtOH): 4.32; λ max. (EtOH): 596
7 | 4.32 | 600 | Cc1cc(-c2cc(-c3ccccc3)cc(-c3ccccc3)[s+]2)cc(C)c1N [Example 17] | 
8 | 4.36 | 602 | COc1cc(-c2cc(-c3ccccc3)cc(-c3ccccc3)[s+]2)c(OC)cc1N [Example 25] | 
9 |  | 616 | Cc1cc(N(C)C)ccc1-c1cc(-c2ccccc2)cc(-c2ccccc2)[s+]1 [Example 16] | 
10 | 4.53 | 620 | CCN(Cc1ccccc1)c1ccc(-c2cc(-c3ccccc3)cc(-c3ccccc3)[s+]2)cc1 [Example 8] | 
11 |  | 654 | Nc1ccc(-c2cc(-c3ccccc3)cc(-c3ccccc3)[s+]2)cc1N [Example 29] | 
12 | 4.31 | 638 | OCCN(CCO)c1ccc(-c2cc(-c3ccccc3)cc(-c3ccccc3)[s+]2)cc1 [Example 26] | 
13 | 4.50 | 602 | c1ccc(CN(Cc2ccccc2)c2ccc(-c3cc(-c4ccccc4)cc(-c4ccccc4)[s+]3)cc2)cc1 [Example 11] | 
14 | 5.18 | 615 | CCN(Cc1ccccc1)c1ccc(-c2cc(-c3ccccc3)cc(-c3ccccc3)[s+]2)cc1 [Example 9] | 
15 | 4.30 | 564 | Cc1cc(N)ccc1-c1cc(-c2ccccc2)cc(-c2ccccc2)[s+]1 [Example 14] | 
16 |  | 675 nm | c1ccc(-c2cc(-c3ccccc3)[s+]c(-c3cc4c5c(c3)CCCN5CCC4)c2)cc1 [Example 31, 2,4-diphenyl-6(julolidin-6-yl) thiopyrylium trifluoromethane sulfonate] | 
17 |  |  | Cc1cc(N)ccc1-c1cc(-c2ccccc2)cc(-c2ccccc2)[s+]1 [Example 15] | log ε max. (EtOH): 4.16; λ max. (EtOH): 556
18 | 4.00 | 564 | Nc1ccc(-c2cc(-c3ccccc3)cc(-c3ccccc3)[s+]2)c(Cl)c1 [Example 27] | 
19 |  |  | CNc1ccc(-c2cc(-c3ccccc3)cc(-c3ccccc3)[s+]2)cc1 [Example 3] | log ε max. (EtOH): 4.38; λ max. (EtOH): 596
20 | 4.55 | 633 | CNc1ccc(-c2cc(-c3ccccc3)cc(-c3ccccc3)[s+]2)cc1 [Example 4] | 
21 | 4.32 | 600 | Cc1cc(-c2cc(-c3ccccc3)cc(-c3ccccc3)[s+]2)ccc1N [Example 12] | 
22 |  |  | Nc1ccc(-c2cc(-c3ccccc3)cc(-c3ccccc3)[s+]2)cc1 [Example 1, 2-(4-aminophenyl)-4,6-diphenylthiopyrylium perchlorate] | log ε max. (EtOH): 4.21; λ max. (EtOH): 584; logε (Example 1, first band (584), solvent not given): 4.21; λ max. (Example 1, first band, solvent not given): 584; logε (Example 1, second band (367), solvent not given): 4.27; λ max. (Example 1, second band, solvent not given): 367
23 | 4.50 | 638 | CCN(CC)c1ccc(-c2cc(-c3ccccc3)cc(-c3ccccc3)[s+]2)cc1 [Example 7] | 
24 |  |  | COc1cc(-c2cc(-c3ccccc3)cc(-c3ccccc3)[s+]2)ccc1N [Example 22] | log ε max. (EtOH): 4.19; λ max. (EtOH): 588
25 | 4.31 | 634 | c1ccc(-c2cc(-c3ccccc3)[s+]c(-c3ccc(NC4CCCCC4)cc3)c2)cc1 [Example 19] | 
26 | 4.27 | 586 | COc1cc(N)ccc1-c1cc(-c2ccccc2)cc(-c2ccccc2)[s+]1 [Example 23] | 
27 | 4.39 | 650 | c1ccc(Nc2ccc(-c3cc(-c4ccccc4)cc(-c4ccccc4)[s+]3)cc2)cc1 [Example 20] | 
28 | 4.34 | 592 | Nc1ccc(-c2cc(-c3ccccc3)cc(-c3ccccc3)[s+]2)cc1 [Example 2] | 

Row | SMILES | log ε max. (CHCl3) | λ max. (CHCl3) | further results
29 | CN(C)c1ccc(-c2cc(-c3ccccc3)cc(-c3ccccc3)[s+]2)cc1 [Example 6] | 4.86 | 622 | 
30 | CN(C)c1ccc(-c2cc(-c3ccccc3)cc(-c3ccccc3)[s+]2)cc1 [Example 5] | 4.77 | 624 | 
